# From patent US20090170091A1, “Method For Predicting Biological Systems Responses” (priority 2006, published 2009)
# Read-outs that look alike come from different tables or passages of the source.
# Experiments:
# [1] = system: HeLa cells; settings: HeLa cells after camptothecin treatment; mRNA abundance; cited from earlier work
# [2] = system: HepG2 cells; assay: CellCipher cytotox profile, multiplexed HCS toxicity panel (11 cytotoxicity parameters, two plate assay); assay type: cell-based
# Text: This example pertains to a multiplexed toxicity HCS profiling panel. It describes the performance of a specific CellCipher™ cytotox profile which is designed to measure 11 cytotoxicity parameters using a two plate assay.
# Assay and Reagent Specifications. […] The antibody and fluorescent indicators of cell physiology reagent specifications for Cytotox Profile Plate 1 are contained in Table 7 whereas the antibody and fluorescent indicators of cell physiology reagent specifications for Cytotox Profile Plate 2 are contained in Table 8. Finally, the assay buffer specifications for both Cytotox Profile Plates 1 and 2 are contained in Table 9.
# HepG2 cell handling and plating procedure. HepG2 cells were obtained from the American Type Cell Collection (cat no. HB-8065) and an original seed stock was prepared from one vial containing 1×10^+6 cells. From the seed stock, a working stock was prepared using standard procedures. Cells were thawed form the working stock when required and maintained in culture for 20 passages before being discarded. […]
# Cell plating for cytotox profile. For the cytotox profile, thin bottom 384-well microplates were used that are compatible with the high numerical aperture optics available on most HCS readers. […] Cells were passaged by trypsinization, including trituration, and viable cells counted. […]
structure (smiles),measurement,setting,value
CC[C@@]1(O)C(=O)OCc2c1cc1n(c2=O)Cc2cc3ccccc3nc2-1 [camptothecin],"Double strand DNA break repair genes, change",[1],4.0%
same,"Histone genes, change",[1],8.1%
same,"Mitosis related genes, change",[1],9.7%
same,"NF-κB inducible genes, change",[1],12.5%
same,"Nuclear compartment genes, change",[1],16.5%
same,"p53-inducible genes, change",[1],28.1%
CC[C@H](C)C(=O)O[C@H]1CCC=C2C=C[C@H](C)[C@H](CC[C@@H]3C[C@@H](O)CC(=O)O3)[C@H]21 [mevastatin],degree of activity (IC50 from KS dose-response fits) across the cytotox profile assays,[2],moderate degree of activity (in the μM range) in many assays
CC[C@H](C)C(=O)O[C@H]1C[C@@H](C)C=C2C=C[C@H](C)[C@H](CC[C@@H]3C[C@@H](O)CC(=O)O3)[C@H]21 [lovastatin],degree of activity (IC50 from KS dose-response fits) across the cytotox profile assays,"[2]; HepG2 cells, 11 features at 30 min, 24 h and 72 h, FIG. 9 heat map clusters",moderate degree of activity (in the μM range) in many assays
